Values quoted from earlier work as cited in US20240390277A1, “LIQUID FORMULATIONS OF TRAZODONE” (Rubicon Research Private Limited, priority 2023, published 2024).

Details: humans

Volume of distribution: 1.2 L/kg
SMILES: O=c1n(CCCN2CCN(c3cccc(Cl)c3)CC2)nc2ccccn12 [Trazodone]
